Measured values from a melting point compilation (Tetko et al.; mined from patent text by program, amines drawn as free bases though some values may be those of a salt).

| SMILES | melting point [°C] |
| --- | --- |
| CP(=O)(O)CC1CC(Cl)=NO1 (stereo unspecified) | 116 |
| CCc1nc2cc(C(C)=O)ccc2n1-c1ccc(CCOC(=O)NS(=O)(=O)c2ccc(C)cc2)cc1 | 188 to 190 |
| Cc1ccc(Oc2ccncc2N)cn1 | 74 to 79 |
| O=C(NC(Cc1c[nH]c2ccccc12)C(=O)Oc1c(F)c(F)c(F)c(F)c1F)OCc1ccccc1 (stereo unspecified) | 169 to 170 |
| O=[N+]([O-])c1ccc(NS(=O)(=O)C(F)(F)F)c(OC2CCCCC2)c1 | 93.5 to 95 |
| CC(C)c1oc(-c2ccccc2)c(-c2ccc(F)c(Oc3ccccc3)c2)c1C=O | 137 |
| CC[C@H]1COC(=O)N1c1nc(-c2ccc(Br)cc2)c(F)s1 | 105 to 107 |
| CC(C)C[C@H](NC(=O)NCc1ccccc1)C(=O)N[C@@H](C(C)C)[C@@H](O)c1c(-c2ccccc2)c1=O | 160 |
| CCc1nn(C2CCCC2)c(NC(=O)c2ccnc3ccccc23)c1C#N | 156 to 161 |
| O=C1N(c2ccccc2Br)Cc2cnc(Nc3ccccc3)nc2N1c1cccc2ccccc12 | 120 to 125 |
| Cn1c(CCc2cc(C(F)(F)F)cc(C(F)(F)F)c2)c(Cc2c[nH]c3ccccc23)oc1=O | 109 to 110 |
| O=C1NC(c2ccccc2)N(CCN2CCN(c3ccccc3)CC2)c2ccccc21 (stereo unspecified) | 142 to 144 |
| COc1cc(OCc2ccccn2)ccc1/C=C/c1cc(/C=C/c2ccc3c(c2)OCCO3)n[nH]1 | 153 to 155 |
| Cc1cc(-c2noc(C)c2-c2ccc(S(C)(=O)=O)c(F)c2)ccc1-c1cscn1 | 99.5 |
| O=C(O)c1cn(CC2CCC2)c2cc(Cl)ccc12 | 191 to 193 |
| O=C(NO)c1ccc(CNC(=O)c2[nH]c(-c3ccccc3)cc2-c2ccc(O)cc2)cc1 | 139 to 141 |
| CNS(=O)(=O)c1ccc(C2=C(c3cccc(F)c3)C(=O)C(C)(C)O2)cc1 | 176 to 177 |
| Cn1nnc(-c2ccc(-c3nnn(C)n3)nc2)n1 | 225 to 226 |
| O=C1C=C(Nc2ccccc2)C(=O)c2nccnc21 | 203 to 205 |
| NCc1ccc(N2CC(CN3CCC(CC(=O)O)CC3)OC2=O)cc1 (stereo unspecified) | 135 |
| CN1C(=O)CCC(C)(C)c2cc(Nc3ncc(Cl)c(N[C@H]4[C@@H](C(N)=O)[C@@H]5C=C[C@H]4C5)n3)ccc21 | 233 |
| COC(=O)C1=C(C)NC(C)=C(C(=O)OC)C1C | 155 to 156 |
| CCOC(=O)c1cc2c3n(ccc-2n1)CC(C(C)C)=N3 | 207 to 209 |
| Nc1cc2c(Nc3ccc(F)c(C(F)(F)F)c3)ncnc2cn1 | 252 to 255 |
| Cc1ccc2c(c1)c1c(OCC#N)cccc1n2Cc1ccccc1 | 188 |

| SMILES | melting point [°C] |
| --- | --- |
| CCCCOc1c(CNC(=O)OC(C)(C)C)n(CC2CC2)c(=O)c2ccc(-c3cnco3)cc12 | 160 to 161 |
| Cn1ncnc1COc1nn2c(-c3ccccc3F)nncc2c1-c1ccc(F)cc1 | 192 |
| CNC(=O)c1ccccc1Nc1nc(Nc2ccc(OC)c3c2N(C)C(=O)CCC3)ncc1Cl | 165 to 167 |
| c1ccc(OCC2CCN(CCCOc3cccc4[nH]c5ccccc5c34)CC2)cc1 | 126 to 128 |
| C#Cc1ccc2c(c1)C(c1ccccc1)=NC(C)c1c(C(=O)OCC)ncn1-2 (stereo unspecified) | 197 to 199 |
| COc1ccc(-c2nnc(C)n2-c2ccccc2)cc1 | 140 to 141 |
| COCCN=Cc1cc(OC)c(OC)cc1[N+](=O)[O-] | 65 to 66 |
| COC(=O)c1ccc(-c2ccccc2)cc1S(=O)(=O)NC(=O)Nc1nc(OC)cc(OC)n1 | 204 to 206 |
| O=C=Nc1c(Br)cccc1Br | 68 to 70 |
| COC(=O)c1cc(Br)c2c(c1Cl)OC(c1ccccc1)(c1ccccc1)O2 | 137 to 138 |
| Cn1c(=O)cc(-c2cccc(Cl)c2)c2cc(C(O)c3cncn3Cc3ccc(C#N)cc3)ccc21 (stereo unspecified) | 150 |
| COc1ccc(OC)c(-c2cn(N)c(N)n2)c1 | 159 to 160 |
| COC(=O)c1ccc(OC)c2c(C(F)(F)F)c(OC)ccc12 | 120 to 123 |
| O=C(NC1CNCCn2c1nc(-c1ccncn1)cc2=O)c1ccccn1 (racemic) | 256 to 258 |
| COP(=O)(CNC(=O)[C@H](C)NC(=O)[C@H](C)NC(=O)OCc1ccccc1)OC | 106 to 108 |
| Fc1ccc(-c2ccn(C3CC4CCC(C3)N4)c2-c2ccncc2)cc1 (stereo unspecified) | 204 to 205 |
| Cc1ccccc1C(=O)c1ccc(CC(=O)O)n1C | 133 to 135 |
| CC1(C)CC(=O)OC(C(Cl)(Cl)Cl)C1Cl (stereo unspecified) | 83 to 84 |
| O=C(Cn1ccnc1)c1cccs1 | 87 to 89 |
| NCCCC[C@H](O)C(=O)O | 197 to 199 |
| CC1(C)Cc2ccccc2C(c2cnc3ccccc3c2)N1 (stereo unspecified) | 117 to 122 |
| CCOCc1cc2cc(Cl)ccc2oc1=O | 100 to 101 |
| O=c1c2cc(O)ccc2oc2c([N+](=O)[O-])ccc(Cl)c12 | 290 to 292 |
| Cc1cc(Cl)c(C(=O)O)c(Cl)c1 | 139 to 145 |
| Cc1c(C(=O)Nc2ccc(OCCO)cc2)nnn1Cc1ccc(Cl)c(Cl)c1 | 140 |

More lines, now with the values ahead:

| melting point [°C] | SMILES |
| --- | --- |
| 160 to 162 | O=[N+]([O-])c1cccc(NN=C(c2ccc(O)cc2)c2ccc(O)cc2)c1 |
| 64 to 65 | CC(=O)N(Cc1cccnc1)c1ccc(Cl)cc1 |
| 86 to 87 | CC(=O)OC1C=C(C)C(=O)CC(C)(C)C1OC(=O)c1ccc(Cl)cc1 (stereo unspecified) |
| 210 to 213 | O=C(O)Cc1ccc(Br)cc1C(=O)O |
| 213 to 215 | CC(=O)Nc1nc(CCCN2CCN(C(c3ccccc3)c3ccccc3)CC2)cs1 |
| 134 to 135 | OCc1cc2cc(-c3ccccc3)ccc2o1 |
| 128 to 130 | CCN1c2ncc(CSc3ncnc4[nH]ncc34)cc2C(=O)N(C)c2ccc(Cl)nc21 |
| 236 | CC(C)(C)Nc1c(NCc2cc(Cl)ccc2Cl)c(=O)c1=O |
| 139 to 140 | CC(=O)N[C@@H](Cc1ccc(Oc2sc(C(N)=O)c3c2-c2c(cnn2C)CC3)cc1)C(=O)N1CCOCC1 |
| 160 to 162 | CCNC(=O)Nc1cc(-c2sc(CC)nc2-c2cccc(C)c2)ccn1 |
| 102 to 103 | O=C(Cl)CN1C(=O)C(Cl)=C(Cl)C1=O |
| 64 | Cc1c(CCCCCCCCC(=O)O)cccc1C(=O)c1ccc(Cl)cc1 |
| 192 | COc1ccc(CN(C)CCCc2ccc(NC(=O)c3cccc4c(=O)c5cccc([N+](=O)[O-])c5[nH]c34)cc2)cc1OC |
| 94 to 95 | CCOC(=O)CCc1cn(-c2ccc(Br)cn2)nc1C(C)(C)C |
| 165 to 166 | C=CCCC1(C(F)(F)F)OC(=O)Nc2ccc(Cl)cc21 (racemic) |
| 195 to 197 | Nc1c(Br)cc(Br)c(CCC(=O)O)c1Br |
| 110 to 111 | Nc1ccc(SCc2nc(Cl)ccc2Cl)cc1 |
| 130 to 132 | N#CCOc1ccc2cc(Br)ccc2c1Br |
| 123 to 125 | COc1ccc(N2CCN(C(=O)CC3C=Cc4ccccc43)CC2)cc1 (stereo unspecified) |
| 81 to 83 | COC(=O)CS(=O)(=O)c1ccc(OC)c(OC)c1 |
| 152 to 153 | CC(C(=O)O)c1ccc(-n2cc(Cl)cn2)cc1 (stereo unspecified) |
| 286 to 288 | N#Cc1cnc2c(c1Nc1cccc(Br)c1)C=C1N=CN=C1C2 |
| 98 to 99 | O=C(NCCCSc1ccncc1)c1ccco1 |
| 123 to 125 | NC(=O)c1c(C(F)(F)F)ccc(Cl)c1F |
| 71 to 73 | COc1ccc(C=CC(=O)c2c(OC)cc(OC)cc2OP(=O)(O)O)cc1 |
| 127 | Cc1ccc(S(=O)(=O)N2CCCC2c2ccc(F)c(F)c2)cc1 (racemic) |

| melting point [°C] | SMILES |
| --- | --- |
| 174 to 175 | COCCOCCOc1cc(OC)c(/C=C/C(=O)c2ccc(C(=O)O)cc2)cc1-c1cccs1 |
| 114 to 116 | CCOCCOc1c(Cl)c(Sc2ccccc2N)c(OCCOCC)c2c1C(=N)NC2=N |
| 62 to 63 | CCOC(=O)CCCCCCC1C(=O)NC(=O)N1C1(O)CCCCC1 (stereo unspecified) |
| 143 to 144 | Cc1oc(-c2ccccc2)nc1COc1ccc(OCc2oc(-c3ccccc3)nc2CO)cc1 |
| 171 to 173 | CC1(C)OC(=S)Nc2ccc(-c3ccccc3F)cc21 |
| 235 to 236 | c1ccc2c(c1)nc(Nc1ccc3cn[nH]c3c1)c1nc(C3CCCC3)[nH]c12 |
| 54.5 | Cc1cc(N2CN=C(C(F)(F)F)O2)cc(C)c1OCCCc1ccc(C(C)(F)F)nn1 |
| 165 to 166 | O=C(O)CCCNC(=O)c1ccccc1NC(=O)c1cccc(Cl)c1 |
| 94 to 96 | CCC(=NO)c1ccc(Oc2cc(F)cc([C@@]3(OC)CCO[C@@H]3C)c2)cc1 (racemic) |
| 167 to 168 | Cc1cccc2nc3c(=O)[nH][nH]c(=O)c3c(O)c12 |
| 211 | CN1CCCC(C(=O)OC2c3ccccc3C(=O)N2c2ccc3ccc(Cl)nc3n2)C1 (stereo unspecified) |
| 172 to 173 | COCC(COC)Oc1cc(Oc2ccc(S(C)(=O)=O)nc2)cc2cc(C3=NCC(CC(N)=O)S3)[nH]c12 (stereo unspecified) |
| 206 to 207 | O=C(N[C@H](Cc1ccc(C(F)(F)F)cc1)[C@@H](O)c1ccoc1)c1ccc(F)c2ccccc12 (racemic) |
| > 300 | Cn1cc(S(=O)(=O)Cl)c(=O)c2cc(F)ccc21 |
| 162 to 165 | O=[N+]([O-])c1ccc(Cn2c(CO)nc3ccccc32)cc1 |
| 139 to 140 | COc1cc2c(cc1Cl)CCNCC2c1ccc(Br)cc1 (stereo unspecified) |
| 92 | CC(C)(C)OC(=O)NCC(O)CNC(=O)OC(C)(C)C |
| 81 to 82 | CCOC(=O)CCc1nnc(-c2ccc3c(c2)CCO3)o1 |
| 138 to 140 | Cc1ccc(C)c(C2C(=O)CC(C)C2=O)c1 (stereo unspecified) |
| 72 to 74 | CCCCS(=O)(=O)On1nnc2ccc(Cl)cc21 |
| 168 to 171 | O=S(=O)(c1ccccc1)n1c(C(O)c2ccoc2)cc2ccncc21 (stereo unspecified) |
| 188 to 189 | CCC(C(C)=CC(CNC(=O)c1cc(C)n[nH]1)=NO)[N+](=O)[O-] (stereo unspecified) |
| 48 to 49 | COC(=O)c1cccc2cc(C)sc12 |
| 97 to 100 | Clc1cc(Cl)n2nc(SCc3ccccc3)nc2n1 |
| 164 to 166 | Nc1cc(C(=O)O)c(F)c(F)c1F |
